{
  "source": "PubChem BioAssay (NCI)",
  "experiment_in_all_cases": "NCI tumour cell line growth inhibition, 48 h",
  "key": {"NCI-H23 lung": {"test_system": "NCI-H23 lung"}, "NCI-H460 lung": {"test_system": "NCI-H460 lung"}, "NCI-H522 lung": {"test_system": "NCI-H522 lung"}, "NCI/ADR-RES ovarian": {"test_system": "NCI/ADR-RES ovarian"}, "OVCAR-3 ovarian": {"test_system": "OVCAR-3 ovarian"}, "OVCAR-4 ovarian": {"test_system": "OVCAR-4 ovarian"}, "OVCAR-5 ovarian": {"test_system": "OVCAR-5 ovarian"}, "OVCAR-8 ovarian": {"test_system": "OVCAR-8 ovarian"}, "PC-3 prostate": {"test_system": "PC-3 prostate"}, "RPMI-8226 leukemia": {"test_system": "RPMI-8226 leukemia"}, "RXF 393 renal": {"test_system": "RXF 393 renal"}, "RXF-631 renal": {"test_system": "RXF-631 renal"}, "SF-268 CNS": {"test_system": "SF-268 CNS"}, "SF-295 CNS": {"test_system": "SF-295 CNS"}, "SF-539 CNS": {"test_system": "SF-539 CNS"}, "SK-MEL-2 melanoma": {"test_system": "SK-MEL-2 melanoma"}, "SK-MEL-28 melanoma": {"test_system": "SK-MEL-28 melanoma"}, "SK-MEL-5 melanoma": {"test_system": "SK-MEL-5 melanoma"}, "SK-OV-3 ovarian": {"test_system": "SK-OV-3 ovarian"}, "SN12C renal": {"test_system": "SN12C renal"}, "SNB-19 CNS": {"test_system": "SNB-19 CNS"}, "SNB-75 CNS": {"test_system": "SNB-75 CNS"}, "SNB-78 CNS": {"test_system": "SNB-78 CNS"}, "SW-620 colon": {"test_system": "SW-620 colon"}, "TK-10 renal": {"test_system": "TK-10 renal"}, "U251 CNS": {"test_system": "U251 CNS"}, "UACC-257 melanoma": {"test_system": "UACC-257 melanoma"}, "UACC-62 melanoma": {"test_system": "UACC-62 melanoma"}, "UO-31 renal": {"test_system": "UO-31 renal"}, "XF 498 CNS": {"test_system": "XF 498 CNS"}},
  "note": "“And” between values parts separate entries of the source, which are not always exact repeats. Equal entries are not always repeated.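 Where inhibition never reached the appropriate level, the endpoint shown equals the highest concentration tested. Otherwise, values were interpolated linearly from a five-concentration, 48-hour dose response in 96-well plates. Abbreviation: GI50, concentration required for 50% inhibition of growth. At the TGI there is no net growth.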",
  "data": [
    {"smiles": "CC(C)(Br)C(=O)C(Br)Br", "values": [
      {"measurement": "GI50", "setting": "NCI-H23 lung", "result": 5.84, "unit": "µM"},
      {"measurement": "TGI", "setting": "NCI-H23 lung", "result": "15.7 µM and 10.5 µM"},
      {"measurement": "GI50", "setting": "NCI-H460 lung", "result": 5.75, "unit": "µM"},
      {"measurement": "TGI", "setting": "NCI-H460 lung", "result": "34.4 µM and 11.4 µM"},
      {"measurement": "GI50", "setting": "NCI-H522 lung", "result": 1.37, "unit": "µM"},
      {"measurement": "TGI", "setting": "NCI-H522 lung", "result": "3.18 µM and 5.16 µM"},
      {"measurement": "TGI", "setting": "NCI/ADR-RES ovarian", "result": 12.6, "unit": "µM"},
      {"measurement": "GI50", "setting": "OVCAR-3 ovarian", "result": 5.76, "unit": "µM"},
      {"measurement": "TGI", "setting": "OVCAR-3 ovarian", "result": "18.6 µM and 10.6 µM"},
      {"measurement": "TGI", "setting": "OVCAR-4 ovarian", "result": "10.9 µM and 9.91 µM"},
      {"measurement": "GI50", "setting": "OVCAR-5 ovarian", "result": 5.26, "unit": "µM"},
      {"measurement": "TGI", "setting": "OVCAR-5 ovarian", "result": "30.6 µM and 9.58 µM"},
      {"measurement": "TGI", "setting": "OVCAR-8 ovarian", "result": "14.9 µM and 9.13 µM"},
      {"measurement": "TGI", "setting": "PC-3 prostate", "result": 11, "unit": "µM"},
      {"measurement": "GI50", "setting": "RPMI-8226 leukemia", "result": "2.31 µM and 1.14 µM"},
      {"measurement": "TGI", "setting": "RPMI-8226 leukemia", "result": "6.29 µM and 6.22 µM"},
      {"measurement": "GI50", "setting": "RXF 393 renal", "result": 5.31, "unit": "µM"},
      {"measurement": "TGI", "setting": "RXF 393 renal", "result": "10 µM and 9.81 µM"},
      {"measurement": "TGI", "setting": "RXF-631 renal", "result": 27.1, "unit": "µM"},
      {"measurement": "GI50", "setting": "SF-268 CNS", "result": 7.42, "unit": "µM"},
      {"measurement": "TGI", "setting": "SF-268 CNS", "result": "27.1 µM and 26 µM"},
      {"measurement": "GI50", "setting": "SF-295 CNS", "result": 21.1, "unit": "µM"},
      {"measurement": "TGI", "setting": "SF-295 CNS", "result": "32.8 µM and 63.3 µM"},
      {"measurement": "GI50", "setting": "SF-539 CNS", "result": 5.42, "unit": "µM"},
      {"measurement": "TGI", "setting": "SF-539 CNS", "result": "> 48.2 µM and 9.97 µM"},
      {"measurement": "GI50", "setting": "SK-MEL-2 melanoma", "result": 5.75, "unit": "µM"},
      {"measurement": "TGI", "setting": "SK-MEL-2 melanoma", "result": "28.8 µM and 10.8 µM"},
      {"measurement": "GI50", "setting": "SK-MEL-28 melanoma", "result": 4.93, "unit": "µM"},
      {"measurement": "TGI", "setting": "SK-MEL-28 melanoma", "result": "22.1 µM and 9.12 µM"},
      {"measurement": "GI50", "setting": "SK-MEL-5 melanoma", "result": 5.55, "unit": "µM"},
      {"measurement": "TGI", "setting": "SK-MEL-5 melanoma", "result": "25 µM and 9.92 µM"},
      {"measurement": "GI50", "setting": "SK-OV-3 ovarian", "result": 32.8, "unit": "µM"},
      {"measurement": "TGI", "setting": "SK-OV-3 ovarian", "result": "31.3 µM and 69.8 µM"},
      {"measurement": "GI50", "setting": "SN12C renal", "result": 6.13, "unit": "µM"},
      {"measurement": "TGI", "setting": "SN12C renal", "result": "> 43.1 µM and 11.2 µM"},
      {"measurement": "TGI", "setting": "SNB-19 CNS", "result": "33.9 µM and 59.4 µM"},
      {"measurement": "GI50", "setting": "SNB-75 CNS", "result": 5.04, "unit": "µM"},
      {"measurement": "TGI", "setting": "SNB-75 CNS", "result": "26.7 µM and 9.38 µM"},
      {"measurement": "TGI", "setting": "SNB-78 CNS", "result": 13.9, "unit": "µM"},
      {"measurement": "GI50", "setting": "SW-620 colon", "result": 5.12, "unit": "µM"},
      {"measurement": "TGI", "setting": "SW-620 colon", "result": "3.59 µM and 10.4 µM"},
      {"measurement": "GI50", "setting": "TK-10 renal", "result": 4.95, "unit": "µM"},
      {"measurement": "TGI", "setting": "TK-10 renal", "result": "23.5 µM and 9.15 µM"},
      {"measurement": "GI50", "setting": "U251 CNS", "result": 9.65, "unit": "µM"},
      {"measurement": "TGI", "setting": "U251 CNS", "result": "> 44.7 µM and 33.3 µM"},
      {"measurement": "GI50", "setting": "UACC-257 melanoma", "result": 5.21, "unit": "µM"},
      {"measurement": "TGI", "setting": "UACC-257 melanoma", "result": "22.4 µM and 9.43 µM"},
      {"measurement": "GI50", "setting": "UACC-62 melanoma", "result": 5.85, "unit": "µM"},
      {"measurement": "TGI", "setting": "UACC-62 melanoma", "result": "22.5 µM and 10.2 µM"},
      {"measurement": "GI50", "setting": "UO-31 renal", "result": 5.5, "unit": "µM"},
      {"measurement": "TGI", "setting": "UO-31 renal", "result": "31.4 µM and 9.8 µM"},
      {"measurement": "TGI", "setting": "XF 498 CNS", "result": 23.8, "unit": "µM"}
    ]}
  ]
}
